Results on nine compounds are retold here after patent US8524716B2, “Macrocyclic indoles as hepatitis C virus inhibitors” (priority 2007, dated 2013).

Where two headings read alike, the source gives them in different places. Bounds are passed on as bounds.

In data set [1] the test system is HCV replicons (NS3-NS5B regions of HCV type 1b) in Huh-Luc cells. Nature of the data set: HCV replicon assay in Huh-7 luc/neo (Huh-Luc) cells, luciferase readout. Type of data set: cell-based. The settings on record: Hepatitis C virus, Huh-7, 72 h, three days incubation, luciferase activity. The text has this:
The compounds of formula (I) were examined for activity in the inhibition of HCV RNA replication in a cellular assay. […] The cellular assay was based on a bicistronic expression construct, as described by Lohmann et al. (1999) Science vol. 285 pp. 110-113 with modifications described by Krieger et al. (2001) Journal of Virology 75: 4614-4624, in a multi-target screening strategy. In essence, the method was as follows.
The assay utilized the stably transfected cell line Huh-7 luc/neo (hereafter referred to as Huh-Luc). This cell line harbors an RNA encoding a bicistronic expression construct comprising the wild type NS3-NS5B regions of HCV type 1b translated from an Internal Ribosome Entry Site (IRES) from encephalomyocarditis virus (EMCV), preceded by a reporter portion (firefly luciferase), and a selectable marker portion (neo^R, neomycine phosphotransferase). The construct is bordered by 5′ and 3′ NTRs (non-translated regions) from HCV type 1b. Continued culture of the replicon cells in the presence of G418 (neo^R) is dependent on the replication of the HCV RNA. The stably transfected replicon cells that express HCV RNA, which replicates autonomously and to high levels, encoding inter alia luciferase, were used for screening the antiviral compounds.
The replicon cells were plated in 384 well plates in the presence of the test and control compounds which were added in various concentrations. Following an incubation of three days, HCV replication was measured by assaying luciferase activity (using standard luciferase assay substrates and reagents and a Perkin Elmer ViewLux™ ultraHTS microplate imager). […] The inhibitory activity of the compound on luciferase activity was monitored on the Huh-Luc cells, enabling a dose-response curve for each test compound. EC50 values were then calculated, which value represents the amount of the compound required to decrease the level of detected luciferase activity by 50%, or more specifically, the ability of the genetically linked HCV replicon RNA to replicate.
Background: A replicon is a self-replicating genome or part of one, used to study replication in cells.

The conditions of data set [2]: rcm bond, Hoveyda-Grubbs 1st generation catalyst, 80.0 °C.
The target in data set [3] is HCV NS5B (Hepatitis C virus genotype 1b (strain HC-J4), UniProt O92972). Kind of data set: biochemical. Type of data set: biochemical. The method, then: The cDNA encoding NS5B amino acid 1-570 (HC-J4, genotype 1b, pCV-J4L6S, genebank accession number AF054247) was subcloned into the Nhe I and Xho I restriction sites of pET-21b. Expression of the subsequent His-tagged C-terminal 21 amino acid deleted NS5B was performed as follows:
The NS5B expression construct was transformed into E. coli BL21(DE3) (Novagen, Madison, Wis.). Five milliliters of LB-medium supplemented with ampicillin (50 μg/mL) was inoculated with one colony. When the pre-culture reached an optical density of 0.6 measured at 600 nm, it was transferred to fresh LB-medium supplemented with ampicillin, at a ratio of 1:200. Cells were grown to an optical density at 600 nm of 0.6, after which the expression cultures were shifted to a growth temperature of 20° C. following induction with isopropyl-1-thio-β-D-galactopyranoside and MgCl2 at a final concentration of 0.4 mM and 10 μM, respectively. After ten hours of induction, cells were harvested by centrifugation and resuspended in 20 mM Tris-HCl, pH 7.5, 300 mM NaCl, 10% glycerol, 0.1% NP40, 4 mM MgCl2, 5 mM DTT supplemented with EDTA-free Complete Protease Inhibitor (Roche, Basel, Switzerland). Cell suspensions were disrupted by sonication and incubated with 10-15 mg/L of DNase I (Roche, Basel, Switzerland) for 30 minutes. Cell debris was removed through ultracentrifugation at 30,000×g for 1 hour and clarified cell lysate was flash frozen and stored at −80° C. prior to purification.
Clarified cell lysate was thawed and subsequently loaded onto a 5 mL pre-packed HisTrap FF column equilibrated with 25 mM HEPES, pH 7.5, 500 mM NaCl, 10% glycerol and 5 mM DTT. Proteins were eluted with 500 mM imidazole at a flow rate of 1 mL/min. Fractions containing the protein of interest were applied onto a pre-packed 26/10 HiPrep Desalting Column equilibrated with 25 mM HEPES, pH 7.5, 150 mM NaCl, 10% glycerol and 5 mM DTT. The buffer-exchanged NS5B peak was then applied onto a 20 mL Poly-U Sepharose column. Protein was eluted with an increasing salt gradient and fractions collected. Protein purity was assessed on Nu-PAGE pre-cast gels (Invitrogen, Carlsbad, Calif.). Purified NS5B samples were concentrated using Centri-Prep concentrators (Millipore, Billerica, Mass., USA) and protein concentrations were determined by Bradford assay (Pierce, Rockford, Ill., USA).
Measurement of HCV NS5B polymerization activity was performed by evaluating the amount of radio labeled GTP incorporated by the enzyme in a newly synthesized RNA using heteropolymeric RNA template/primer. The high-throughput RNA dependent RNA polymerase (RdRp) assay was carried out in 384-well plates using 100 nM enzyme, 300 nM 5′-biotinylated oligo(rG13)/poly(rC) primer-template, 600 nM of GTP, and 0.1 μCi of [^3H]GTP in 25 mM Tris-HCl, pH 7.5, 5 mM MgCl2, 25 mM KCl, 17 mM NaCl and 3 mM of dithiothreitol (DTT). Test compounds were dissolved in DMSO. The test compounds were added to the preformed polymerase-template complex, and incubated at room temperature for 15 min before the addition of nucleoside triphosphates (NTP). The 30 μl reaction was terminated after 2 h at 25° C. upon addition of 30 μl A PVT-SPA beads (Amersham Biosciences RPNQ0009, 5 mg/ml in 0.5 M EDTA).

[4] abbreviates: 100 nM enzyme, [3H]GTP incorporation, 2 h at 25° C., read-out: IC50 (μM) Enzymatic assay.

Chain of HCV NS5B (O92972 2420-3010 limits assumed): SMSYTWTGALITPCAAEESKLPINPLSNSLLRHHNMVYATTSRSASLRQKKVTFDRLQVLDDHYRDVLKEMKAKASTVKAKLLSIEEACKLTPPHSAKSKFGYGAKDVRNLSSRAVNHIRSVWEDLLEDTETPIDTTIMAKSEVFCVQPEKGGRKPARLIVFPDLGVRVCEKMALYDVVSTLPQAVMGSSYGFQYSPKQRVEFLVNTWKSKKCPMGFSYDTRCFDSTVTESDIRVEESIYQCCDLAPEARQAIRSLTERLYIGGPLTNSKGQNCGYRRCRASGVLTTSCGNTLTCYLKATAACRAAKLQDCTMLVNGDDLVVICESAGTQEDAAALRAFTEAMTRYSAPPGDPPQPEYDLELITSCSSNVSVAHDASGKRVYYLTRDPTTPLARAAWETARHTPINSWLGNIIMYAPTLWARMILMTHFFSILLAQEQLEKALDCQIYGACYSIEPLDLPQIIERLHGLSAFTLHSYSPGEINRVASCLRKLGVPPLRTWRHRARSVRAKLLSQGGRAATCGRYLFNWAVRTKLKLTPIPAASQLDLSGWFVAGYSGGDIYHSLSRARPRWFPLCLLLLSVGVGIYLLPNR

On to `CN1CCCCN(C)S(=O)(=O)NC(=O)c2ccc3c(C4CCCCC4)c(-c4ccc(Cl)cc4)n(c3c2)CC1=O` [Cpd 24, 18-(4-Chloro-phenyl)-17-cyclohexyl-4,9-dimethyl-10,10-dioxo-10λ^6-thia-1,4,9,11-tetraaza-tricyclo[11.5.2.016,19]icosa-13(20),14,16(19),17-tetraene-3,12-dione], for which the EC50 (commonly the concentration that produces a half-maximal response) in data set [1] is 0.53 µM. Under “amide bond, 15-membered ring”, this compound displayed a ring closure, isolated yield of 12%. `COc1ccc(-c2ccc(Cl)cc2)c(-c2ccc3cc(-c4c(C5CCCCC5)c5ccc6cc5n4CC(=O)NCCC=CCCNC6=O)ccc3n2)c1` registered a ring closure, isolated yield (from C=CCCNC(=O)c1cc(C)c2c(C3CCCCC3)c(-c3ccc4nc(-c5cc(OC)ccc5-c5ccc(Cl)cc5)ccc4c3)n(C(=O)NCCC=C)c2c1, rcm bond, 15-membered ring, Hoveyda-Grubbs 1st gen (0.42 eq), DCE, 1.32 mM, 80.0 °C) of 30%. Moreover, the ring closure, yield of all isomers in data set [2] (from C=CCCNC(=O)Cn1c(-c2ccc3nc(-c4cc(OC)ccc4-c4ccc(Cl)cc4)ccc3c2)c(C2CCCCC2)c2ccc(C(=O)NCCC=C)cc21, DCE, 1.32 mM) turned out to be 30%. In turn, `CS(=O)(=O)N1CCN(c2ccc([N+](=O)[O-])cc2COc2ccc(-c3c(C4CCCCC4)c4ccc5cc4n3CC(=O)NCCC=CCCNC5=O)cc2)CC1` displayed a ring closure, isolated yield (rcm bond, 15-membered ring, Hoveyda-Grubbs 1st gen (2 portions), DCE, 80.0 °C) of 70%. Consider `COc1ccc(-c2c(C3CCCCC3)c3ccc4cc3n2CC(=O)NCCCCCN(C)S(=O)(=O)NC4=O)cc1` [Cpd 26, 18-Cyclohexyl-19-(4-methoxy-phenyl)-10-methyl-11,11-dioxo-11λ^6-thia-1,4,10,12-tetraaza-tricyclo[12.5.2.017,20]henicosa-14(21),15,17(20),18-tetraene-3,13-dione], for which, in data set [1], the EC50 came to 0.35 µM. Under “amide bond, 16-membered ring, CDI, CH3CN, 2 steps”, this compound had a ring closure, isolated yield of 31%. The compound `O=C1Cn2c(-c3ccoc3)c(C3CCCCC3)c3ccc(cc32)C(=O)NCCC=CCCN1` returned a ring closure, yield of all isomers in data set [2] (from C=CCCNC(=O)Cn1c(-c2ccoc2)c(C2CCCCC2)c2ccc(C(=O)NCCC=C)cc21, 1,2-dichloroethane, 1.585 mM, 15.0 h) of 22%.

Compound `O=C1Cn2c(-c3ccc(OCc4cc(N5CCCC5=O)ccc4N4CCOCC4)cc3)c(C3CCCCC3)c3ccc(cc32)C(=O)NCCC=CCCN1` came in with a ring closure, isolated yield (from C=CCCNC(=O)Cn1c(-c2ccc(OCc3cc(N4CCCC4=O)ccc3N3CCOCC3)cc2)c(C2CCCCC2)c2ccc(C(=O)NCCC=C)cc21, rcm bond, 15-membered ring, Hoveyda-Grubbs 1st gen (2 portions), DCE, 80.0 °C) of 25%.

In data set [1], `COc1ccc(-c2ccc(Cl)cc2)c(COc2ccc(-c3c(C4CCCCC4)c4ccc5cc4n3CC(=O)NCCCCCCNC5=O)cc2)c1` [Cpd 10, 18-[4-(4′-chloro-4-methoxybiphenyl-2-ylmethoxy)phenyl]-17-cyclohexyl-1,4,11-triazatricyclo[11.5.2.0^16,19]icosa-13(20),14,16(19),17-tetraene-3,12-dione] gave an EC50 above 32 µM. Moreover, it took 6.9 µM to reach half-maximal inhibition in data set [3] (IC50).

`CS(=O)(=O)N1CCN(c2ccc([N+](=O)[O-])cc2COc2ccc(-c3c(C4CCCCC4)c4ccc5cc4n3CC(=O)NCC/C=C\CCNC5=O)cc2)CC1` [Cpd 3, 17-cyclohexyl-18-[4-[2-(4-methanesulfonylpiperazin-1-yl)-5-nitrobenzyloxy]phenyl]-1,4,11-triazatricyclo[11.5.2.0^16,19]icosa-7,13(20),14,16(19),17-pentaene-3,12-dione]: in data set [1], the midpoint of the response, the EC50, lay at 0.72 µM. Besides, the IC50 (usually the concentration that gives 50% inhibition) in data set [3] (setting [4]) worked out at 1.1 µM. The like results for `O=C1Cn2c(-c3ccoc3)c(C3CCCCC3)c3ccc(cc32)C(=O)NCC/C=C\CCN1` [Cpd 1, 17-cyclohexyl-18-(furan-3-yl)-1,4,11-triaza-tricyclo-[11.5.2.0^16,19]icosa-7,13(20),14,16(19),17-pentaene-3,12-dione] were, in that order, 3.4 µM and 2.2 µM.
